{"source": "paper PMC5429769", "about": "“Rational development of Stafib-2: a selective, nanomolar inhibitor of the transcription factor STAT5b” (Scientific Reports, 2017)", "key": {"STAT1": {"target": "T1, STAT1 (Homo sapiens, UniProt P42224)", "T1 sequence (P42224 1-750)": "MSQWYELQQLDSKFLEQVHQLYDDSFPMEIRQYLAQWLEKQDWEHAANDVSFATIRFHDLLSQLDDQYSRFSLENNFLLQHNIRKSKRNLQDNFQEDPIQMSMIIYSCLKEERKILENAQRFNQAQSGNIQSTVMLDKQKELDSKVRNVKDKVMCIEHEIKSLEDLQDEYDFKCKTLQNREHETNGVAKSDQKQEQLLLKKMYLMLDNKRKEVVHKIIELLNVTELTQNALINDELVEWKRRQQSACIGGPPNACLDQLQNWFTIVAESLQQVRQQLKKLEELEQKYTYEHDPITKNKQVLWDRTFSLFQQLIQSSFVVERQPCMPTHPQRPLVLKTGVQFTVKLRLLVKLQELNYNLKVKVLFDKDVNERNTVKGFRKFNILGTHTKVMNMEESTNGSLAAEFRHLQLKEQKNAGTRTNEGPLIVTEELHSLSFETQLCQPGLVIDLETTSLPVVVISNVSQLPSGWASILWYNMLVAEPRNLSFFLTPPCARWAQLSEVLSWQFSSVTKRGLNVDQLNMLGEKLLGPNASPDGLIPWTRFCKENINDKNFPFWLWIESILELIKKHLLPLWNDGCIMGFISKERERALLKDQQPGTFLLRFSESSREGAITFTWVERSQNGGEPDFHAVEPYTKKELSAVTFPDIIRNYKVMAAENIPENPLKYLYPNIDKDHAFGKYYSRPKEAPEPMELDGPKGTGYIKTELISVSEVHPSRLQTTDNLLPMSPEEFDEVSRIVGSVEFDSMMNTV", "assay": "Fluorescence polarization assay, STAT1", "assay_type": "binding"}, "STAT5b Phe633Ala": {"target": "T2, STAT5b Phe633Ala (Homo sapiens, UniProt P51692, F633A)", "T2 sequence (P51692 1-787 F633A)": "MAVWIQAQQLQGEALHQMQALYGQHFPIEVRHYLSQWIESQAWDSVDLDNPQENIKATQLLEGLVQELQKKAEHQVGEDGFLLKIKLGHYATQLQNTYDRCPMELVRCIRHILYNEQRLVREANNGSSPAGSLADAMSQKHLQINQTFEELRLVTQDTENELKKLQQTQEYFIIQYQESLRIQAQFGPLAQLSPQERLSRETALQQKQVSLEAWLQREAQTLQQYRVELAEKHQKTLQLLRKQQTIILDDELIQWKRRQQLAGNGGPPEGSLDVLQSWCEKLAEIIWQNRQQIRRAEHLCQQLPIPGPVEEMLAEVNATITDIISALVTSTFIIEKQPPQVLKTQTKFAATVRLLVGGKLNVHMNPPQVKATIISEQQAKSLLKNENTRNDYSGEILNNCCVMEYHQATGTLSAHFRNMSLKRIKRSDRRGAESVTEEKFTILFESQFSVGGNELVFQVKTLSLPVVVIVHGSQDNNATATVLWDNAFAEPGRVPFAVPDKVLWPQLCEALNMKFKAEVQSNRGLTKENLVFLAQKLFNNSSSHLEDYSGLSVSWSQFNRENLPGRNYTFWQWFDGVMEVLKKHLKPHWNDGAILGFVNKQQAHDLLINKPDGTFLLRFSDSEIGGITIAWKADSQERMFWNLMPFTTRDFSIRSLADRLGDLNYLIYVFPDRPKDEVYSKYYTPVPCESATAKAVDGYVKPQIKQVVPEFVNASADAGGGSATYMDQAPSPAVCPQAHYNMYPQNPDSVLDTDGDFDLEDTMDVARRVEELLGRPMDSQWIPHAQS", "assay": "Isothermal titration calorimetry, STAT5b Phe633Ala", "assay_type": "binding", "details": "ITC, 25 °C, n = 2"}, "STAT5b-GFP": {"target": "T3, STAT5b-GFP (Homo sapiens, UniProt P51692)", "T3 sequence (P51692 1-787)": "T2 sequence (P51692 1-787 F633A) with A633F", "assay": "STAT5b Tyr699 phosphorylation in STAT5b-GFP-transfected K562 cells (Western blot)", "assay_type": "cell-based"}}, "note": "Changes are numbered by the printed parent chain.", "data": [{"smiles": "O=C(COc1ccc(C(=O)Nc2ccc(Oc3ccccc3)cc2)cc1)NCc1ccc(OP(=O)(O)O)c(OP(=O)(O)O)c1", "note": "[compound 4, 4-((2-(4-((4-phenoxyphenyl)carbamoyl)phenoxy)acetamido)methyl)-1,2-phenylene bis(dihydrogen phosphate)]", "values": [{"measurement": "Ki", "setting": "STAT1; converted from IC50 using the published equation", "value": "22.8 ± 1", "unit": "µM"}, {"measurement": "IC50", "setting": "STAT1; fluorescence polarization", "value": "46 ± 2", "unit": "µM"}, {"measurement": "Kd", "setting": "STAT5b Phe633Ala", "value": "1.65 ± 0.02", "unit": "µM"}, {"measurement": "ΔH", "setting": "STAT5b Phe633Ala", "value": "-4.3 ± 0.2", "unit": "kcal/mol"}, {"measurement": "−TΔS", "setting": "STAT5b Phe633Ala", "value": "-3.6 ± 0.2", "unit": "kcal/mol"}, {"measurement": "inhibition of STAT5b phosphorylation", "setting": "STAT5b-GFP", "value": "did not show significant activity"}]}]}
